Experimental data taken from ChEMBL document CHEMBL4414598, “Trifluorinated Pyrimidine-Based A2B Antagonists: Optimization and Evidence of Stereospecific Recognition” (J Med Chem, 2019).

Experiments:
[1] = target: T1, Adenosine receptor A2a (Homo sapiens, UniProt P29274); assay: Displacement of [3H]ZM241385 from human recombinant A2A receptor expressed in human HeLa cell membranes at 1 uM incubated for 30 mins by radioligand binding competition assay relative to control
[2] = target: T2, Adenosine receptor A1 (Homo sapiens) (UniProt P30542); assay: Displacement of [3H]DPCPX from human recombinant A1 receptor expressed in CHOA1 cell membranes at 1 uM incubated for 60 mins by radioligand binding competition assay relative to control
T2 sequence (whole entry): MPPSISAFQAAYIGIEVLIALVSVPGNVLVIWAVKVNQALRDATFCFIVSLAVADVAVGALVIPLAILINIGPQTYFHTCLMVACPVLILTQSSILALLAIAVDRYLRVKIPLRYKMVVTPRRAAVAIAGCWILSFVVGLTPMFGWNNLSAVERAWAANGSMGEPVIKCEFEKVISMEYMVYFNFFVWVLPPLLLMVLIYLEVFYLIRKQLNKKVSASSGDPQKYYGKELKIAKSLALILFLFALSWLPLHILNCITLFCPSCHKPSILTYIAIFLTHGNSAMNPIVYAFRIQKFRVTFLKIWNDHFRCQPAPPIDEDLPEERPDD

[3] = target: T3, Adenosine receptor A2b (Homo sapiens, UniProt P29275); assay: Displacement of [3H]DPCPX from human recombinant A2B receptor expressed in human HEK293 cell membranes incubated for 30 mins by radioligand binding competition assay
T3 sequence (P29275 whole entry): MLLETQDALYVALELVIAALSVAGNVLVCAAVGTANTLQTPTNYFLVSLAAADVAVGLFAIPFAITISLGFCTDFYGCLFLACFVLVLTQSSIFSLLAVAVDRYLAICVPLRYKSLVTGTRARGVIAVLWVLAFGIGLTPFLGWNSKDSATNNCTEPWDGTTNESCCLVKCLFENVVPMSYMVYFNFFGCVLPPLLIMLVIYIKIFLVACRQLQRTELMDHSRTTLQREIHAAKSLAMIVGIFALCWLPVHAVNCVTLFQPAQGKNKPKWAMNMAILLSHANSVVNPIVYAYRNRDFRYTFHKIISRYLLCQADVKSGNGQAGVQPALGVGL

[4] = target: T4, Adenosine receptor A3 (Homo sapiens) (UniProt P0DMS8); assay: Displacement of [3H]NECA from human A3 receptor expressed in human HeLa cell membranes at 1 uM incubated for 180 mins by radioligand binding competition assay relative to control
T4 sequence (whole entry): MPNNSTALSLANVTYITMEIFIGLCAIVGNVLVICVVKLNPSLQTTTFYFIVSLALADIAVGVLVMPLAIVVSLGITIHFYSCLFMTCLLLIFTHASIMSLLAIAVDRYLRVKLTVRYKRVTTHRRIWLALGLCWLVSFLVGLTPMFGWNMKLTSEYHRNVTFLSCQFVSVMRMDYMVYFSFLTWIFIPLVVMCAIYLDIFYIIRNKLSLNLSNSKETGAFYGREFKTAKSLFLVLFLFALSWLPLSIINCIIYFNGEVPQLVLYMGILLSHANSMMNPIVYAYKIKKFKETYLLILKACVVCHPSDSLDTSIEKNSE

[5] = organism: Homo sapiens; assay: Selectivity index, ratio of Ki for displacement of [3H]DPCPX from human recombinant A1 receptor expressed in CHOA1 cell membranes incubated for 60 mins by radioligand binding competition assay to Ki for displacement of [3H]DPCPX from human recombinant A2B receptor expressed in human HEK293 cell membranes at 1 uM incubated for 30 mins by radioligand binding competition assay
[6] = organism: Homo sapiens; assay: (§1) Selectivity index, ratio of Ki for displacement of [3H]NECA from human A3 receptor expressed in human HeLa cell membranes incubated for 180 mins by radioligand binding competition assay to Ki for displacement of [3H]DPCPX from human recombinant A2B receptor expressed in human HEK293 cell membranes at 1 uM incubated for 30 mins by radioligand binding competition assay
[7] = organism: Homo sapiens; assay: as §1, with “[3H]ZM241385” for “[3H]NECA”, “recombinant A2A” for “A3”, “30” for “180”
[8] = target: T5, Adenosine receptor A3 (Homo sapiens, UniProt P0DMS8); assay: Displacement of [3H]NECA from human A3 receptor expressed in human HeLa cell membranes incubated for 180 mins by radioligand binding competition assay
T5 sequence (P0DMS8 whole entry): T4 sequence (whole entry)

[9] = target: T1, Adenosine receptor A2a; assay: Displacement of [3H]ZM241385 from human recombinant A2A receptor expressed in human HeLa cell membranes incubated for 30 mins by radioligand binding competition assay
[10] = target: T6, Adenosine receptor A1 (Homo sapiens, UniProt P30542); assay: Displacement of [3H]DPCPX from human recombinant A1 receptor expressed in CHOA1 cell membranes incubated for 60 mins by radioligand binding competition assay
T6 sequence (P30542 whole entry): T2 sequence (whole entry)

T1 sequence (P29274 whole entry): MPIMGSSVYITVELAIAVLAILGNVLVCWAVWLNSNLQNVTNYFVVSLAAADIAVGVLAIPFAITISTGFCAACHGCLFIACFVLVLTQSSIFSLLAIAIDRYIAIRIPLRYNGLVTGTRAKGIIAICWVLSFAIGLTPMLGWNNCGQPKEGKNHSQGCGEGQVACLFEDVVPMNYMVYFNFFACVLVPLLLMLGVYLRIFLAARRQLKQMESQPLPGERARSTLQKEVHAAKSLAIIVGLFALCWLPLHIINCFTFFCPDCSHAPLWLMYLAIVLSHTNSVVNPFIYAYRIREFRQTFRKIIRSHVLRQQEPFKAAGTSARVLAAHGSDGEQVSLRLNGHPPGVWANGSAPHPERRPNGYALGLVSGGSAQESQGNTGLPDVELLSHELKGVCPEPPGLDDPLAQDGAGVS

| Compound | inhibition [1] [%] | inhibition [2] [%] | Ki [3] [nM] | inhibition [4] [%] | Ki [8] [nM] | Ki [9] [nM] | Ki [10] [nM] | Ratio Ki [5] | Ratio Ki [6] | Ratio Ki [7] |
| --- | --- | --- | --- | --- | --- | --- | --- | --- | --- | --- |
| CC1=C(C(=O)O[C@@H](C)C(F)(F)F)C(c2ccco2)n2c(nc3ccccc32)N1 (mixture of isomers) | 1 | 26 | 15.1 | 7 |  |  |  |  |  |  |
| CCOC(=O)C1=C(C(F)(F)F)NC(=O)NC1c1ccoc1 (racemic) | 55 | 37 | 521 | 1 |  |  |  |  |  |  |
| CC1=C(C(=O)O[C@H](C)C(F)(F)F)[C@@H](c2ccco2)n2c(nc3ccccc32)N1 | 1 | 12 | 6.91 | 14 |  |  |  |  |  |  |
| CCOC(=O)C1=C(C(F)(F)F)NC(=O)NC1c1ccsc1 (racemic) | 46 | 32 | 575 | 3 |  |  |  |  |  |  |
| CC1=C(C(=O)OCC(F)(F)F)C(c2ccco2)n2c(nc3ccccc32)N1 (racemic) | 7 | 16 | 27 | 23 |  |  |  |  |  |  |
| CCOC(=O)C1=C(C(F)(F)F)Nc2nc3ccccc3n2C1c1ccco1 (racemic) | 4 | 11 | 731 | 20 |  |  |  |  |  |  |
| CC(C)OC(=O)C1=C(C(F)(F)F)NC(=O)NC1c1ccsc1 (racemic) | 9 | 23 | 651 | 3 |  |  |  |  |  |  |
| CC1=C(C(=O)OC(C)C(F)(F)F)C(c2ccoc2)n2c(nc3ccccc32)N1 (racemic) | 3 | 2 | 52.3 | 3 |  |  |  | > 1000 | > 1000 | > 1000 |
| CCOC(=O)C1=C(C(F)(F)F)Nc2nc3ccccc3n2C1c1ccsc1 (racemic) | 13 | 16 | 118 | 29 |  |  |  |  |  |  |
| CC1=C(C(=O)OCC(F)(F)F)C(c2ccoc2)NC(=O)N1 (racemic) | 9 | 13 | 588 | 1 |  |  |  |  |  |  |

Second part, led by results:

| inhibition [1] [%] | inhibition [2] [%] | Ki [3] [nM] | inhibition [4] [%] | Ki [8] [nM] | Ki [9] [nM] | Ki [10] [nM] | Compound | Ratio Ki [5] | Ratio Ki [6] | Ratio Ki [7] |
| --- | --- | --- | --- | --- | --- | --- | --- | --- | --- | --- |
| 11 | 12 | 17 | 23 |  |  |  | CC1=C(C(=O)O[C@H](C)C(F)(F)F)C(c2ccco2)n2c(nc3ccccc32)N1 (mixture of isomers) |  |  |  |
| 11 | 14 | 42.1 | 1 |  |  |  | CC1=C(C(=O)OCC(F)(F)F)C(c2ccoc2)n2c(nc3ccccc32)N1 (racemic) | > 1000 | > 1000 | > 1000 |
| 5 | 22 | 8.73 | 21 |  |  |  | CC1=C(C(=O)O[C@@H](C)C(F)(F)F)[C@@H](c2ccco2)n2c(nc3ccccc32)N1 |  |  |  |
| 9 | 11 | 13.7 | 3 |  |  |  | CCOC(=O)C1=C(C(F)(F)F)Nc2nc3ccccc3n2[C@@H]1c1ccoc1 |  |  |  |
| 28 | 20 |  | 2 | 2 | 28 | 20 | CC1=C(C(=O)OC(C)C)C(c2ccco2)n2c(nc3ccccc32)N1 (stereo not given) |  |  |  |
| 1 | 10 | 157 | 1 |  |  |  | CC1=C(C(=O)OCC(F)(F)F)C(c2ccco2)NC(=O)N1 (racemic) |  |  |  |
| 1 | 9 | 11.2 | 7 |  |  |  | CC1=C(C(=O)OCC(F)(F)F)[C@@H](c2ccco2)n2c(nc3ccccc32)N1 |  |  |  |
| 18 | 9 | 37.4 | 6 |  |  |  | CCOC(=O)C1=C(C(F)(F)F)Nc2nc3ccccc3n2C1c1ccoc1 (racemic) |  |  |  |
| 23 | 8 | 49.2 | 23 |  |  |  | CC(C)OC(=O)C1=C(C(F)(F)F)Nc2nc3ccccc3n2C1c1ccoc1 (racemic) | > 1000 | > 1000 | > 1000 |
| 24 | 11 | 238 | 5 |  |  |  | CC(C)OC(=O)C1=C(C(F)(F)F)NC(=O)NC1c1ccco1 (racemic) |  |  |  |
| 4 | 3 | 29.6 | 18 |  |  |  | CC1=C(C(=O)OC(C)C(F)(F)F)C(c2ccco2)n2c(nc3ccccc32)N1 (racemic) |  |  |  |
